In ChEMBL document CHEMBL1201862, “PubChem BioAssay data set” (2004):
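A five-concentration, 48-hour dose response in 96-well plates underlies each endpoint, interpolated linearly between surrounding concentrations. GI50 is the concentration that inhibits growth by half.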 The source made the active and inactive calls. No stated cut-off is given here; in the data, active = GI50 up to about 1.1 µM and inactive = higher.

What was measured:
Assay in all cases: NCI anticancer screen, dose series, 48 h
[1] = test system: 786-0
[2] = test system: A498
[3] = test system: A549
[4] = test system: BT-549
[5] = test system: CAKI-1
[6] = test system: CCRF-CEM
[7] = test system: COLO 205
[8] = test system: DU-145
[9] = test system: EKVX
[10] = test system: HCT-116
[11] = test system: HCT-15
[12] = test system: HL-60
[13] = test system: HOP-62
[14] = test system: HOP-92
[15] = test system: HT-29
[16] = test system: Hs-578T
[17] = test system: IGROV-1
[18] = test system: K562
[19] = test system: KM12
[20] = test system: LOX IMVI
[21] = test system: M14
[22] = test system: MCF7
[23] = test system: MDA-MB-231
[24] = test system: MDA-MB-435
[25] = test system: MDA-N
[26] = test system: MOLT-4
[27] = test system: Malme-3M
[28] = test system: NCI-H226
[29] = test system: NCI-H23
[30] = test system: NCI-H460
[31] = test system: NCI/ADR-RES
[32] = test system: OVCAR-3
[33] = test system: OVCAR-4
[34] = test system: OVCAR-5
[35] = test system: OVCAR-8
[36] = test system: PC-3
[37] = test system: RPMI-8226
[38] = test system: RXF 393
[39] = test system: SF-268
[40] = test system: SF-295
[41] = test system: SF-539
[42] = test system: SK-MEL-28
[43] = test system: SK-MEL-2
[44] = test system: SK-MEL-5
[45] = test system: SK-OV-3
[46] = test system: SN12C
[47] = test system: SNB-19
[48] = test system: SNB-75
[49] = test system: SR
[50] = test system: SW-620
[51] = test system: T47D
[52] = test system: TK-10
[53] = test system: U-251
[54] = test system: UACC-257
[55] = test system: UACC-62
[56] = test system: UO-31
[57] = test system: NCI-H522
[58] = test system: ACHN

C=CCN1C(=O)C[C@H](Cc2ccccc2)NC(=O)C[C@H](Cc2ccccc2)N(CC=C)C(=O)C[C@H](Cc2ccccc2)NC(=O)C[C@@H]1Cc1ccccc1
GI50 [1]: 47.8 µM (inactive) | GI50 [2]: 7.01 µM (inactive) | GI50 [3]: 4.83 µM (inactive) | GI50 [4]: 95.5 µM (inactive) | GI50 [5]: 5.15 µM (inactive) | GI50 [6]: 4.76 µM (inactive) | GI50 [7]: 2.3 µM (inactive) | GI50 [8]: > 100 µM (inactive) | GI50 [9]: 0.942 µM (active) | GI50 [10]: 14.8 µM (inactive) | GI50 [11]: 12.2 µM | GI50 [12]: 3.35 µM (inactive) | GI50 [13]: 51.8 µM (inactive) | GI50 [14]: 4.48 µM (inactive) | GI50 [15]: 5.19 µM (inactive) | GI50 [16]: > 100 µM (inactive) | GI50 [17]: 20 µM (inactive) | GI50 [18]: 3.45 µM (inactive) | GI50 [19]: 26 µM (inactive) | GI50 [20]: 3.99 µM (inactive) | GI50 [21]: 8.09 µM (inactive) | GI50 [22]: 4.04 µM (inactive) | GI50 [23]: 8.79 µM (inactive) | GI50 [24]: 5.93 µM (inactive) | GI50 [25]: 8.91 µM (inactive) | GI50 [26]: 2.69 µM (inactive) | GI50 [27]: 3.81 µM (inactive) | GI50 [28]: 14 µM (inactive) | GI50 [29]: > 100 µM (inactive) | GI50 [30]: 5.42 µM (inactive) | GI50 [31]: 4.37 µM (inactive) | GI50 [32]: 87.7 µM (inactive) | GI50 [33]: 4.6 µM (inactive) | GI50 [34]: > 100 µM (inactive) | GI50 [35]: 39.4 µM (inactive) | GI50 [36]: 3.1 µM (inactive) | GI50 [37]: 2.76 µM (inactive) | GI50 [38]: 7.14 µM (inactive) | GI50 [39]: 6.12 µM (inactive) | GI50 [40]: 23.6 µM (inactive) | GI50 [41]: 46.1 µM (inactive) | GI50 [42]: 61.9 µM (inactive) | GI50 [43]: 6.73 µM (inactive) | GI50 [44]: 20.7 µM (inactive) | GI50 [45]: 34 µM (inactive) | GI50 [46]: 5.7 µM (inactive) | GI50 [47]: > 100 µM (inactive) | GI50 [48]: 3.92 µM (inactive) | GI50 [49]: 5.16 µM (inactive) | GI50 [50]: 62.7 µM (inactive) | GI50 [51]: 6.3 µM (inactive) | GI50 [52]: 8.79 µM (inactive) | GI50 [53]: 12.9 µM (inactive) | GI50 [54]: 6.97 µM (inactive) | GI50 [55]: 6.34 µM (inactive) | GI50 [56]: 7.03 µM (inactive)

COc1cccc2c1-c1nc(N)c3c(OC)cccc3c1C2=O
GI50 [1]: 35.9 µM (inactive) | GI50 [2]: > 100 µM (inactive) | GI50 [3]: > 100 µM (inactive) | GI50 [4]: > 100 µM (inactive) | GI50 [5]: > 100 µM (inactive) | GI50 [6]: > 100 µM (inactive) | GI50 [7]: > 100 µM (inactive) | GI50 [8]: > 100 µM (inactive) | GI50 [9]: 54.1 µM (inactive) | GI50 [10]: > 100 µM (inactive) | GI50 [11]: 28.9 µM | GI50 [12]: 19.6 µM (inactive) | GI50 [13]: 22.8 µM (inactive) | GI50 [14]: > 100 µM (inactive) | GI50 [15]: 28.8 µM (inactive) | GI50 [16]: 22.2 µM (inactive) | GI50 [17]: > 100 µM (inactive) | GI50 [18]: 64.7 µM (inactive) | GI50 [19]: 16.1 µM (inactive) | GI50 [20]: 59.7 µM (inactive) | GI50 [21]: > 100 µM (inactive) | GI50 [22]: > 100 µM (inactive) | GI50 [23]: 19.1 µM (inactive) | GI50 [24]: > 100 µM (inactive) | GI50 [25]: > 100 µM (inactive) | GI50 [26]: 53.5 µM (inactive) | GI50 [27]: > 100 µM (inactive) | GI50 [28]: 48.3 µM (inactive) | GI50 [29]: 24.9 µM (inactive) | GI50 [57]: > 100 µM (inactive) | GI50 [31]: > 100 µM (inactive) | GI50 [32]: > 100 µM (inactive) | GI50 [33]: 62.8 µM (inactive) | GI50 [34]: > 100 µM (inactive) | GI50 [35]: 85.5 µM (inactive) | GI50 [36]: > 100 µM (inactive) | GI50 [37]: > 100 µM (inactive) | GI50 [39]: 68.4 µM (inactive) | GI50 [40]: > 100 µM (inactive) | GI50 [41]: > 100 µM (inactive) | GI50 [42]: > 100 µM (inactive) | GI50 [43]: > 100 µM (inactive) | GI50 [44]: > 100 µM (inactive) | GI50 [45]: > 100 µM (inactive) | GI50 [46]: 95.1 µM (inactive) | GI50 [48]: 22.3 µM (inactive) | GI50 [49]: > 100 µM (inactive) | GI50 [50]: > 100 µM (inactive) | GI50 [51]: > 100 µM (inactive) | GI50 [52]: > 100 µM (inactive) | GI50 [53]: > 100 µM (inactive) | GI50 [54]: > 100 µM (inactive) | GI50 [55]: > 100 µM (inactive) | GI50 [56]: 45.1 µM (inactive)

Cc1c([N+](=O)[O-])ccc2c(NCCCN(C)C)ccnc12
GI50 [1]: 26.8 µM (inactive) | GI50 [2]: 34 µM (inactive) | GI50 [3]: 19.8 µM (inactive) | GI50 [58]: 30.8 µM (inactive) | GI50 [4]: 17.9 µM (inactive) | GI50 [5]: 35.6 µM (inactive) | GI50 [6]: > 100 µM (inactive) | GI50 [7]: 12.2 µM (inactive) | GI50 [8]: 33 µM (inactive) | GI50 [10]: 15.2 µM (inactive) | GI50 [11]: 17.3 µM | GI50 [12]: > 100 µM (inactive) | GI50 [13]: 31.1 µM (inactive) | GI50 [14]: 16.5 µM (inactive) | GI50 [15]: 14.2 µM (inactive) | GI50 [16]: 24 µM (inactive) | GI50 [17]: 22.2 µM (inactive) | GI50 [18]: 48.6 µM (inactive) | GI50 [19]: 16.7 µM (inactive) | GI50 [20]: 15.7 µM (inactive) | GI50 [21]: 16.3 µM (inactive) | GI50 [22]: 15.9 µM (inactive) | GI50 [23]: 23 µM (inactive) | GI50 [24]: 17.5 µM (inactive) | GI50 [25]: 15 µM (inactive) | GI50 [26]: > 100 µM (inactive) | GI50 [27]: 17.2 µM (inactive) | GI50 [28]: 30.4 µM (inactive) | GI50 [29]: 19 µM (inactive) | GI50 [30]: 16.3 µM (inactive) | GI50 [57]: 17.3 µM (inactive) | GI50 [31]: 28.2 µM (inactive) | GI50 [32]: 21 µM (inactive) | GI50 [33]: 17.4 µM (inactive) | GI50 [34]: 29.6 µM (inactive) | GI50 [35]: 25.2 µM (inactive) | GI50 [36]: 16.4 µM (inactive) | GI50 [37]: 67.6 µM (inactive) | GI50 [38]: 23.9 µM (inactive) | GI50 [39]: 37 µM (inactive) | GI50 [40]: 22.2 µM (inactive) | GI50 [41]: 16.8 µM (inactive) | GI50 [42]: 25.5 µM (inactive) | GI50 [43]: 17.1 µM (inactive) | GI50 [44]: 16 µM (inactive) | GI50 [45]: 39.8 µM (inactive) | GI50 [46]: 29.1 µM (inactive) | GI50 [48]: 25.4 µM (inactive) | GI50 [49]: 29.2 µM (inactive) | GI50 [50]: 17.8 µM (inactive) | GI50 [51]: 25.4 µM (inactive) | GI50 [52]: 27.5 µM (inactive) | GI50 [53]: 27.4 µM (inactive) | GI50 [54]: 17.2 µM (inactive) | GI50 [55]: 20.7 µM (inactive) | GI50 [56]: 13.7 µM (inactive)
